The melting point is the temperature of the solid-liquid transition.

Molecules are shown by their SMILES.

`O=Cc1ccnc(C(=O)Nc2ccc(Oc3ccc(C(F)(F)F)cc3)cc2)c1O` [1-2, 2-{N-para-[4-(trifluoromethylphenoxy)phenyl]} aminocarbonyl-3-hydroxy-4-formyl pyridine]: the melting point is 160 °C.
